IC (2-fold clotting time) and IC50 data for 10 molecules are collected here from patent US5869501A, “Amidinonaphthyl derivative or salt thereof” (Yamanouchi Pharmaceutical Co. Ltd, priority 1994, dated 1999).

Counter-ions that a name gives are not always drawn. Like-named read-outs stand apart in the source and are kept apart here.

What all share (format): biochemical
Assay [1] concerns the target T1, human activated blood coagulation factor X (Homo sapiens, UniProt P00742).
T1 construct: purchased Cosmo Bio
Briefly: Measurement of blood coagulation time by human activated blood coagulation factor X (human plasma). Particulars: read-out: CT2 (dose which extends the blood coagulation time twice), human activated blood coagulation factor X. Here is the method: 1) Test on the measurement of blood coagulation time by human activated blood coagulation factor X.
Human activated blood coagulation factor X (manufactured by Cosmo Bio) is dissolved in 0.05M Tris-HCl buffer (pH=7.40) to prepare a 0.05 unit/ml solution. A blood sample collected using 1/10 volume of 3.8% sodium citrate was centrifuged at 3,000 rpm for 10 minutes. Then, 90 μl portion of the thus separated human plasma was mixed with 10 μl of each drug which has been diluted by dissolving in physiological saline and 50 μl of the aforementioned activated blood coagulation factor X solution, and the mixture was incubated at 37° C. for 3 minutes. Then, 100 μl of 20 mM CaCl2 solution was added to measure the blood coagulation time. KC4A manufactured by Amelung was used for the measurement of blood coagulation time. A dose which extends the blood coagulation time twice (to be referred to as CT2 hereinafter) was calculated based on the blood coagulation time when 10 μl of physiological saline was added instead of the drug.

The target in assay [2] is T2, bovine thrombin (Bos taurus, UniProt P00735).
T2 construct: clotting of human fibrinogen
Briefly: Measurement of coagulation time by bovine thrombin (human fibrinogen). The note with it: pH=7.40, read-out: CT2 (dose which extends the blood coagulation time twice), bovine thrombin. As to the method:
2) Test on the measurement of coagulation time by bovine thrombin.
Human fibrinogen (freeze-dried preparation, manufactured by Sigma) is dissolved in 0.05M Tris-HCl buffer (pH=7.40) to prepare a 6 mg/ml solution. Bovine thrombin (500 IU/vial, manufactured by Mochida Pharmaceutical) is dissolved in physiological saline to prepare thrombin solutions of various concentrations. A 100 μl portion of the aforementioned fibrinogen solution was mixed with 100 μl of physiological saline, the mixture was incubated at 37° C. for 3 minutes. Then, 100 μl of the aforementioned thrombin solution was added to measure the coagulation time and to determine concentration of thrombin which causes coagulation after about 20 seconds. Next, 100 μl of each drug which has been diluted with physiological saline was added to 100 μl of the aforementioned fibrinogen solution to measure the coagulation time. KC4A manufactured by Amelung was used for the measurement of the coagulation time. A dose which extends the blood coagulation time twice (to be referred to as CT2 hereinafter) was calculated based on the blood coagulation time when 100 μl of physiological saline was added.

For assay [3], the target named is T1, human activated blood coagulation factor X. Kind of assay: Measurement of enzyme inhibition by a synthetic substrate method (S-2222). The note with it: 37° C., 15 minutes, absorbance at 405 nm. Here is the method:
3) Test on the measurement of enzyme inhibition by a synthetic substrate method.
Human activated blood coagulation factor X (manufactured by Cosmo Bio) was dissolved in 0.02M Tris-HCl buffer (pH=7.40) containing 0.15M sodium chloride to prepare a 6 units/ml solution. A synthetic substrate S-2222 (manufactured by Daiichi Kagaku Yakuhin) was dissolved in purified water to prepare a 0.75 mg/ml solution. A 25 μl portion of each drug which has been prepared by dissolving the drug in physiological saline was mixed with 170 μl of 0.05M Tris-HCl buffer (pH=8.40) and 50 μl of the S-2222 solution. Then, 10 μl of the human activated blood coagulation factor X solution was added and the mixture was incubated at 37° C. for 15 minutes. The reaction was stopped by adding 50 μl of 60% acetic acid and then the absorbance at 405 nm was measured to calculate IC50 value. Model 3550 manufactured by Bio-Rad was used for the measurement. A reaction mixture prepared by adding physiological saline instead of the drug and adding 60% acetic acid prior to the addition of the human activated blood coagulation factor X solution was used as a control. Concentration of the drug when 50% of the reaction was inhibited (to be referred to as IC50 hereinafter) was calculated based on the control.

The mark [4] stands for this setting: human plasma, 37° C., 3 minutes incubation.

T1 sequence (P00742 235-488 limits assumed): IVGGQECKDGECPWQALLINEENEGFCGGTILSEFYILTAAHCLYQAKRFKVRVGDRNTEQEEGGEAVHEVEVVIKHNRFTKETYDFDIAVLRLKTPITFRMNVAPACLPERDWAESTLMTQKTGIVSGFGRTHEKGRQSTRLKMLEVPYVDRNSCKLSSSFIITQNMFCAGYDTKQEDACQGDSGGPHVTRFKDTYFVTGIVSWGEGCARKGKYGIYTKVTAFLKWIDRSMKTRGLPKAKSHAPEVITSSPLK
T1 sequence (P00742 41-179 partner limits assumed): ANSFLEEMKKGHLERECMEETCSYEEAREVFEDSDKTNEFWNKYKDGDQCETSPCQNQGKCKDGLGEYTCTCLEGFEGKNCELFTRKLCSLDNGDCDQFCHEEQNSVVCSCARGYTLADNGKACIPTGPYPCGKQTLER

As to `CCOC(=O)C(=O)N(Cc1ccc2ccc(C(=N)N)cc2c1)c1ccc(OC2CCN(C(C)=N)CC2)cc1` [Example 23, ethyl N-[4-[(1-acetoimidoyl-4-piperidyl)oxy]phenyl]-N-[(7-amidino-2-naphthyl)methyl]oxamate dihydrochloride], the IC (2-fold clotting time) in assay [1] (setting [4]) is 0.11 µM; in assay [2], more than 100 µM.

With `CCS(=O)(=O)N(Cc1ccc2ccc(C(=N)N)cc2c1)c1ccc(OC2CCN(C(C)=N)CC2)cc1` [Example 28, N-[4-[(1-Acetoimidoyl-4-piperidyl)oxy]phenyl]-N-[(7-amidino-2-naphthyl)methyl]ethanesulfonamide dihydrochloride], the IC (2-fold clotting time) in assay [1] (setting [4]) is 0.05 µM; in assay [2], more than 100 µM.

Turning to `CC(=N)N1CCC(Oc2ccc(NCc3ccc4ccc(C(=N)N)cc4c3)cc2)CC1` [Example 31, 7-[[4-[(1-Acetoimidoyl-4-piperidyl)oxy]anilino]methyl]-2-naphthamidine trihydrochloride], the IC (2-fold clotting time) in assay [1] (setting [4]) is 0.09 µM; in assay [2] it was more than 100 µM.

Turning to `COc1ccccc1C(=O)N(Cc1ccc2ccc(C(=N)N)cc2c1)c1ccc(OC2CCN(C(C)=N)CC2)cc1` [Example 33, N-[4-[(1-Acetoimidoyl-4-piperidyl)oxy]phenyl]-N-[(7-amidino-2-naphthyl)methyl]-2-methoxybenzamide dihydrochloride], the figures for the IC (2-fold clotting time) in assay [1] (setting [4]) and in assay [2] were 0.14 µM and more than 100 µM, respectively.

On to `CC(=N)N1CCC(Oc2ccc(N(Cc3ccc4ccc(C(=N)N)cc4c3)C(=O)c3c(F)cccc3F)cc2)CC1` [Example 47, N-[4-[(1-Acetoimidoyl-4-piperidyl)oxy]phenyl]-N-[(7-amidino-2-naphthyl)methyl]-2,6-difluorobenzamide dihydrochloride], for which the values for the IC (2-fold clotting time) in assay [1] (setting [4]) and in assay [2] were 0.13 µM and more than 100 µM, respectively.

`CCOC(=O)NS(=O)(=O)N(Cc1ccc2ccc(C(=N)N)cc2c1)c1ccc(OC2CCN(C(C)=N)CC2)cc1` [Example 63, Ethyl N-[N-[4-[(1-acetoimidoyl-4-piperidyl)oxy]phenyl]-N-[7-amidino-2-naphthyl)methyl]sulfamoyl]carbamate dihydrochloride]: the results for the IC (2-fold clotting time) in assay [1] (setting [4]) and in assay [2] were 0.04 µM and more than 100 µM, respectively.

With `CC(=N)N1CCC(Oc2ccc(N(Cc3ccc4ccc(C(=N)N)cc4c3)S(=O)(=O)c3ccc(C(=O)O)cc3)cc2)CC1` [Example 74, 4-[N-[4-[(1-Acetoimidoyl-4-piperidyl)oxy]phenyl]-N-[(7-amidino-2-naphthyl)methyl]sulfamoyl]benzoic acid dihydrochloride], the IC (2-fold clotting time) was 0.09 µM in assay [1] (setting [4]) and more than 100 µM in assay [2].

`CNS(=O)(=O)N(Cc1ccc2ccc(C(=N)N)cc2c1)c1ccc(OC2CCN(C(C)=N)CC2)cc1` [Example 79, N-[4-[(1-Acetoimidoyl-4-piperidyl)oxy]phenyl]-N-[(7-amidino-2-naphthyl)methyl]-N'-methylsulfamide dihydrochloride]: the IC (2-fold clotting time) in assay [1] is 0.05 µM; in assay [2], more than 100 µM. The molecule further came in with an IC50 in assay [3] of 91 nM.

For the molecule `CCOC(=O)N(CC(=O)O)S(=O)(=O)N(Cc1ccc2ccc(C(=N)N)cc2c1)c1ccc(OC2CCN(C(C)=N)CC2)cc1` [Example 86, N-[N-[4-[(1-Acetoimidoyl-4-piperidyl)oxy]phenyl]-N-[(7-amidino-2-naphthyl)methyl]sulfamoyl]-N-ethoxycarbonylglycine dihydrochloride], the IC (2-fold clotting time) in assay [1] (setting [4]) was 0.04 µM; in assay [2], more than 100 µM.

For `CCOC(=O)CNS(=O)(=O)N(Cc1ccc2ccc(C(=N)N)cc2c1)c1ccc(OC2CCN(C(C)=N)CC2)cc1` [Example 88, Ethyl N-[N-[4-[(1-acetoimidoyl-4-piperidyl)oxy]phenyl]-N-[(7-amidino-2-naphthyl)methyl]sulfamoyl]glycinate dihydrochloride], the IC (2-fold clotting time) in assay [1] is 0.04 µM; in assay [2] it was more than 100 µM. Besides, in assay [3], the IC50 amounted to 47 nM.

One may read the IC50 as the concentration needed to halve the response being measured.
